These results are taken from patent US20240287062A1, “NAPHTHYRIDONE COMPOUNDS FOR INHIBITION OF RAF KINASES AND/OR BCR-ABL TYROSINE KINASES” (Enliven Inc., priority 2021, published 2024).

Structures can show the parent of a compound that is named as a salt. Where two headings read alike, the source gives them in different places.

Common to all, as to format: cell-based
Series [1] relates to phosphorylated ERK (pERK). The series can be described thus: Detection of phosphorylated ERK (pERK), AlphaLISA in A375 cells. The settings on record: four hours incubation, inhibition of ERK phosphorylation, read-out: PERK ELISA (IC50). The protocol:
A375 cells were counted and seeded at 10,000 cells/well in 384 well plates (Corning 3764) and allowed to adhere overnight.
Compounds were dissolved and serially diluted in DMSO. The compounds were then added, mixed, and incubated for four hours at 37° C., 5% CO2. Compounds were added using four-fold dilutions at final concentrations ranging from 10 μM to 0.01 nM. DMSO only and 10 uM staurosporine were added as high and low controls.
Following the four-hour incubation with compounds, cell lysates were prepared and AlphaLISA assay measuring phosphorylated ERK was performed. Media was removed using the Apricot Designs pipettor. Lysis buffer was made from 1× AlphaLISA SureFire Assay Kit (AlphaLISA SureFire Ultra pERK 12 (Thr202/Tyr204) ALSU-PERK-A50K) lysis buffer with protease and phosphatase inhibitors. Cells were lysed by adding 10 uL to all the wells and mixed for 40 minutes on a plate shaker. 10 uL cell lysate was transferred to a new Optiplate (PerkinElmer 6007290) and incubated with 5 uL 1× acceptor mix for 2 hours in the dark. 5 uL of 1× donor mix was added to all wells and mixed by shaking followed by overnight incubation in the dark.
pERK AlphaLISA signal was read on the Envision using standard AlphaLISA settings. Percent inhibition of ERK phosphorylation was calculated by % Inhibition=100×(LumHC−LumSample)/(LumHC−LumLC). The low and high controls (LC/HC) are generated from lysate from wells with cells treated with DMSO or […] Staurosporine (BioAustralis, cat #BIA-S1086), […]. IC50 values were calculated by fitting the Curve using XLfit (v5.3.1.3), equation 201: Y=Bottom+(Top−Bottom)/(1+10^((Log IC50−X)*HillSlope)).

The subject of the next series is HepG2 (NRAS Q61L). Nature of the series: Cell viability assay (CellTiter Glo). The following applies: HepG2, 750 cells per well, read-out: BRAF Cytotoxicity (IC50, nM) HEPG2. The protocol:
(§1) Cell viability was measured in the following MAPK pathway mutant cancer cell lines: A375 (BRAF V600E), HepG2 (NRAS Q61L), SK-MEL-30 (NRAS Q61K), and OCI-AML-2 (MBNL1-CRAF fusion). Cell viability was also measured in K562 cells.
(§2) A375, HepG2, SK-MEL-30 and OCI-AML-2 cells were grown in the appropriate growth medium as described in Table B2 below, and harvested at 50-80% confluence. Cells were counted and seeded at their appropriate density (see Table B1) in a 384-well plate (Corning 3570). A375, HepG2 and SK-MEL-30 were allowed to adhere overnight prior to treatment and the OCI-AML-2 were treated immediately for the indicated drug treatment times (Table 6).
(§3) Table 6 provides the growth media, number of cells seeded per well and drug treatment times for the each cell line. K562 cells were grown as described in Example B1 above.
(§4) Compounds were dissolved in DMSO and serially diluted. Serially-diluted compound or a DMSO only control (high control, “HC”) was added to the plated cells in each well. Compounds were tested at concentrations of about 10 μM to 0.51 nM, using three-fold dilutions. The final proportion of DMSO never exceeded 0.1%.
(§5) Plates were placed in a 37° C., […] incubator for the indicated treatment times (Table B1). Plates were then removed from the incubator and equilibrated for 15 minutes at room temperature. 40 μl of CellTiter Glo reagent (Promega) was added to measure the relative level of metabolically active cells by quantifying intracellular ATP concentrations. Plates were incubated for 30 minutes at room temperature, and luminescence was measured. Percent viability was normalized to a vehicle control only using the following formula: 0 viability=100×(LumSample−LumLC)/(LumHC−LumLC). Graphical curves were fitted using a nonlinear regression model with a sigmoidal dose response.
A general note: In ATP-based viability assays light output follows the ATP content of the culture.

The next series relates to SK-MEL-30 (NRAS Q61K). The series can be described thus: Cell viability assay (CellTiter Glo). The following applies: SK-MEL-30, 750 cells per well, read-out: BRAF Cytotoxicity (IC50, nM) SK-MEL-30. The method, then:
as §1, §2, §3, §4, §5

The test system of the next series is A375 (BRAF V600E). The series can be described thus: Cell viability assay (CellTiter Glo). The protocol: as §1, §2, §3, §4, §5
Series [2] concerns OCI-AML-2 (MBNL1-CRAF fusion). Nature of the series: Cell viability assay (CellTiter Glo). The settings on record: Homo sapiens, OCI-AML2, 72 h, OCI-AML-2, 1000 cells per well, read-out: BRAF Cytotoxicity (IC50, nM) OCI-AML-2. The method, then:
as §1, §2, §3, §4, §5

Setting [3] is: A375, 250 cells seeded per well, 72 hours, read-out: BRAF Cytotoxicity (IC50, nM) A375 (250 cells).
Where [4] appears, read: Homo sapiens, A-375, 72 h, A375, 1000 cells seeded per well, read-out: BRAF Cytotoxicity (IC50, nM) A375 (1000 cells).
[5] abbreviates: A375, 1000 cells seeded per well, 72 hours, read-out: BRAF Cytotoxicity (IC50, nM) A375 (1000 cells).

`Cc1cc(-n2cccn2)ncc1-c1cc2cnc(NC(=O)C3CC3)cc2n(C)c1=O` [Compound 122, N-{1-methyl-3-[4-methyl-6-(pyrazol-1-yl)pyridin-3-yl]-2-oxo-1,6-naphthyridin-7-yl}cyclopropanecarboxamide]: the IC50 in series [1] (Homo sapiens, A-375, 4 h) turned out to be 478 nM.

Take `CCC(O)c1cc(C)c(-c2cc3cnc(NC(=O)C4CC4)cc3n(C)c2=O)c(C)c1` (stereo in doubt) [Compound 121, (S)—N-(3-(4-(1-hydroxypropyl)-2,6-dimethylphenyl)-1-methyl-2-oxo-1,2-dihydro-1,6-naphthyridin-7-yl)cyclopropanecarboxamide]: the IC50 in series [1] came to 151 nM.

On to `COCC(O)c1cc(C)c(-c2cc3cnc(NC(=O)C4CC4)cc3n(C)c2=O)cn1` (single isomer, unassigned) [Example S60, Enantiomer B, N-(3-{6-[1-hydroxy-2-methoxyethyl]-4-methylpyridin-3-yl}-1-methyl-2-oxo-1,6-naphthyridin-7-yl)cyclopropanecarboxamide], for which the IC50 amounted to 19 nM in series [1], 225 nM in the series with HepG2 (NRAS Q61L) (120 hours), 3260 nM in the series on SK-MEL-30 (NRAS Q61K) (120 hours) and 1070 nM in the series on A375 (BRAF V600E) (setting [3]).

Regarding `CCC(O)c1cc(C)c(-c2cc3cnc(NC(=O)C4CC4)cc3n(C)c2=O)c(C)c1` (stereo in doubt) [Compound 120, (S)—N-(3-(4-(1-hydroxypropyl)-2,6-dimethylphenyl)-1-methyl-2-oxo-1,2-dihydro-1,6-naphthyridin-7-yl)cyclopropanecarboxamide], the IC50 in series [1] is above 10000 nM.

As to `CCC(O)c1cc(C)c(-c2cc3cnc(NC(C)=O)cc3n(C)c2=O)cn1` (single isomer, unassigned) [Example S59, Enantiomer B, N-(3-(6-(1-hydroxypropyl)-4-methylpyridin-3-yl)-1-methyl-2-oxo-1,2-dihydro-1,6-naphthyridin-7-yl)acetamide], the IC50 in series [1] worked out at 373 nM.

Regarding `CC[C@@H](O)c1cc(C)c(-c2cc3cnc(NC(=O)C4CC4)cc3n(C)c2=O)cn1` [Compound 68, (R)—N-(3-(6-(1-hydroxypropyl)-4-methylpyridin-3-yl)-1-methyl-2-oxo-1,2-dihydro-1,6-naphthyridin-7-yl)cyclopropanecarboxamide], the IC50 in series [1] (Homo sapiens, A-375, 4 h) turned out to be 249 nM; in series [2], 2510 nM; with A375 (BRAF V600E) (setting [4]) it was 871 nM.

Take `CCCC(=O)c1cc(C)c(-c2cc3cnc(NC(=O)[C@H]4C[C@H]4F)cc3n(C)c2=O)cn1` [Compound 151, (1R,2R)—N-(3-(6-butyryl-4-methylpyridin-3-yl)-1-methyl-2-oxo-1,2-dihydro-1,6-naphthyridin-7-yl)-2-fluorocyclopropane-1-carboxamide]: the 50% inhibitory concentration (IC50) in series [1] (Homo sapiens, A-375, 4 h) is 10.4 nM; in the series on HepG2 (NRAS Q61L) (Homo sapiens, HepG2, 120 h) it was 37.3 nM; in series [2], 448 nM; in the series on SK-MEL-30 (NRAS Q61K) (Homo sapiens, SK-MEL-30, 120 h), 244 nM.

Take `CCC(O)c1cc(C)c(-c2cc3cnc(NC(=O)C4CC4)cc3n(C)c2=O)c(C)c1` (stereo in doubt) [Compound 118, (R)—N-(3-(4-(1-hydroxypropyl)-2,6-dimethylphenyl)-1-methyl-2-oxo-1,2-dihydro-1,6-naphthyridin-7-yl)cyclopropanecarboxamide]: the IC50 in series [1] is 1250 nM.

Regarding `Cc1cc([C@H](O)C(C)(F)F)ncc1-c1cc2cnc(NC(=O)C3CC3)cc2n(C)c1=O` (single isomer, unassigned) [Compound 116, formate], the IC50 in series [1] (Homo sapiens, A-375, 4 h) is 78.1 nM.

`CCCC(O)c1cc(C)c(-c2cc3cnc(NC(=O)C4CC4)cc3n(C)c2=O)cn1` (single isomer, unassigned) [Example S42, Enantiomer B, N-(3-(6-(1-hydroxybutyl)-4-methylpyridin-3-yl)-1-methyl-2-oxo-1,2-dihydro-1,6-naphthyridin-7-yl)cyclopropanecarboxamide]: the IC50 came out at 14.7 nM in series [1] and 141 nM in the series on A375 (BRAF V600E) (setting [5]).

On to `Cc1cc([C@@H](O)C(C)(F)F)ncc1-c1cc2cnc(NC(=O)C3CC3)cc2n(C)c1=O` (single isomer, unassigned) [Compound 117], for which the IC50 in series [1] (Homo sapiens, A-375, 4 h) was found to be 61.3 nM.

For the compound `COCC(O)c1cc(C)c(-c2cc3cnc(NC(=O)C4CC4)cc3n(C)c2=O)cn1` (single isomer, unassigned) [Example S60, Enantiomer A, N-(3-{6-[1-hydroxy-2-methoxyethyl]-4-methylpyridin-3-yl}-1-methyl-2-oxo-1,6-naphthyridin-7-yl)cyclopropanecarboxamide], the IC50 was 120 nM in series [1], above 10000 nM with HepG2 (NRAS Q61L) (120 hours), above 10000 nM with SK-MEL-30 (NRAS Q61K) (120 hours) and 5950 nM with A375 (BRAF V600E) (setting [3]).

In the case of `CC[C@H](O)c1cc(C)c(-c2cc3cnc(NC(=O)[C@@H]4CC4(F)F)cc3n(C)c2=O)cn1` (single isomer, unassigned) [Compound 124], in series [1] (Homo sapiens, A-375, 4 h), the IC50 came out at 63.5 nM.

Turning to `CCCC(O)c1cc(C)c(-c2cc3cnc(NC(=O)C4CC4)cc3n(C)c2=O)cn1` (single isomer, unassigned) [Example S42, Enantiomer A, N-(3-(6-(1-hydroxybutyl)-4-methylpyridin-3-yl)-1-methyl-2-oxo-1,2-dihydro-1,6-naphthyridin-7-yl)cyclopropanecarboxamide], the IC50 in series [1] was found to be 55.1 nM; with A375 (BRAF V600E) (setting [5]), 930 nM.

For the compound `CCC(O)c1cc(C)c(-c2cc3cnc(NC(=O)C4CC4)cc3n(C)c2=O)c(C)c1` (stereo in doubt) [Compound 119, (R)—N-(3-(4-(1-hydroxypropyl)-2,6-dimethylphenyl)-1-methyl-2-oxo-1,2-dihydro-1,6-naphthyridin-7-yl)cyclopropanecarboxamide], in series [1], the IC50 amounted to 313 nM.

On to `CCCC(O)c1cc(C)c(-c2cc3cnc(NC(C)=O)cc3n(C)c2=O)cn1` (single isomer, unassigned) [Example S67, Enantiomer B, N-(3-{6-[1-hydroxybutyl]-4-methylpyridin-3-yl}-1-methyl-2-oxo-1,6-naphthyridin-7-yl)acetamide], for which, in series [1], the IC50 was 23.9 nM.

As to `CC[C@@H](O)c1cc(C)c(-c2cc3cnc(NC(=O)[C@@H]4CC4(F)F)cc3n(C)c2=O)cn1` (single isomer, unassigned) [Compound 123], the IC50 in series [1] (Homo sapiens, A-375, 4 h) was 119 nM.

As for `CC[C@@H](O)c1cc(C)c(-c2cc3cnc(NC(=O)[C@H]4C[C@H]4F)cc3n(C)c2=O)cn1` [Compound 109, (1R,2R)-2-fluoro-N-(3-(6-((R)-1-hydroxypropyl)-4-methylpyridin-3-yl)-1-methyl-2-oxo-1,2-dihydro-1,6-naphthyridin-7-yl)cyclopropane-1-carboxamide], the IC50 in series [1] (Homo sapiens, A-375, 4 h) is 76.6 nM; in the series with A375 (BRAF V600E) (setting [4]) it was 1630 nM.

Turning to `CCC(O)c1cc(C)c(-c2cc3cnc(NC(=O)[C@@H]4C[C@@H]4F)cc3n(C)c2=O)cn1` (single isomer, unassigned; isomer b) [Example S40, Isomer B], the IC50 in series [1] was determined as 230 nM; in the series on A375 (BRAF V600E) (setting [5]), 940 nM.

As usually defined, the IC50 is the midpoint of a concentration-inhibition curve.
